“Also recorded” adds a separate entry of the source.
What was measured:
[1] = test system: L. donovani promastigotes; experiment: Anti-leishmanial screening against L. donovani promastigotes at a single concentration (MTT); type: cell-based, Leishmania donovani; conditions: for Activity against the promastigote parasite (in words) / % Inhibition of L. donovani promastigotes: 100 μM; for inhibition at 100 µM: Leishmania donovani, 72 h; for inhibition at 100 µM / % Inhibition of L. donovani promastigotes: 72 h at 26 °C, MTT
Experimental: Each candidate was evaluated for its in vitro activity against reference strain (MHOM/IN/83/AG83) of extracellular promastigotes and intracellular amastigotes of L. donovani.
Promastigotes were routinely cultured at 26 °C in medium M199 supplemented with 10% heat inactivated fetal bovine serum (FBS, Gibco Laboratories, Mumbai, India), penicillin 100 (IU mL^−1), streptomycin (100 μg mL^−1). Log phase promastigotes were sub-cultured every 72–96 h, the inoculum being 2 × 10^6 cells per mL.[29]
The triazin hybrids series was evaluated for their antileishmanial ability against L. donovani promastigotes in vitro. Promastigotes of L. donovani (1× 10^6 cells per mL) in M199 medium were incubated at 26 °C for 72 h with each compound at a concentration of 100 μM. Miltefosine (MTF) was used as a reference drug, 0.2% DMSO as solvent control. Parasites with media alone were taken as control. Parasite viability was achieved by MTT assay after 72 h (Sharma et al. 2023).[30]

[2] = test system: promastigote form of L. donovani; conditions: cited from earlier work
L. donovani amastigotes = experiment: Anti-amastigote assay in infected THP-1 macrophages (Giemsa); type: cell-based, Leishmania donovani
Experimental: To evaluate the anti-leishmanial effect of the compound T4 and T7 on intracellular L. donovani parasites, macrophage was infected with stationary -phase L. donovani for 6 h. The cells were then washed with saline to remove any non-internalised parasites. To assess the effect of compounds T4 and T7 on intracellular parasites at early stages of infection, macrophages were subsequently treated with T4 and T7 at concentrations of 100, 50, 25, 12.5, or 6.25 μM (refer to Table 3 and Fig. 7) for 6, 24, or 48 hours.
THP-1 cells (5 × 10^5 cells per mL) were cultivated in RPMI-1640 media (Roswell Park Memorial Institute 1640) (Sigma-Aldrich, USA), supplemented with 10% fetal calf serum and maintained at 37 °C with 5% CO2 using phorbol ester as the inducer. These cells were added on circular coverslips (1 × 10^6 cells per mL). Promastigotes of L. donovani were introduced at 1 : 20 ratio. Treatment of the samples was carried out at doses of 100, 50, 25, 12.5, 6.25 and 3.125 μM/72 h. After being taken off, the coverslips were stained with Giemsa. The rate of macrophage infection was then ascertained.

[3] = test system: L. donovani promastigotes; experiment: Dose-dependent anti-promastigote activity and determination of IC50 (MTT); type: cell-based; conditions: Leishmania donovani, 72 h, 3 days at 26 °C
Experimental: MTF was used as a standard antileishmanial drug control. The cell viability was evaluated (by MTT Assay) and the mean percentage viability was calculated as follows: Mean cell number of treated parasites/mean cell number of untreated parasites × 100. The 50 and 90% inhibitory concentration (IC50) i.e., the concentration of drugs that decreased the cell growth by 50 and 90% respectively, was determined by graphical extrapolation after plotting the graph of percentage viability vs. concentration of the drug.[31]
Parasite viability was not affected by DMSO (0.2%, data not shown) used as solvent control.[33]

[4] = test system: Human macrophage THP-1 cell line; experiment: Cytotoxicity assay on THP-1 cell line (MTT); type: cell-based; conditions: 3.125–100 μM
Experimental: The cell lines were incubated for 48 h at 37 °C in a CO2 incubator with increasing concentrations of test compounds and viability was ascertained. Each point or bar corresponds to the mean ± SEM of triplicate samples and is representative of one of three independent experiments.
THP-1 human monocytic cells were grown at 37 °C in medium RPMI-1640 (pH 7.4, Sigma-Aldrich, St. Louis, MO, USA) supplemented with 10% heat-inactivated FBS for 48 to 72 h in a humidified atmosphere of 5% CO2 and sub-cultured in fresh RPMI-1640 medium at an average density 2 × 10^5 cells per mL (Sharma et al. 2023).[30]
Human macrophage THP-1 cell line of 0.5 × 10^6 cells per mL seeded in RPMI-1640 medium (Sigma-Aldrich, USA) supplemented with 10% FBS (GIBCO) in presence of 5% CO2 at 37 °C in triplicate in 96 well culture plate. The cells were treated with two-fold serially diluted concentrations (100–3.125 μM) of the candidate molecules for 72 h. The IC50 was calculated using MTT assay (Sharma et al. 2023).[30]

[5] = test system: L. donovani promastigotes; experiment: Determination of promastigote cellular morphology (light microscopy); type: cell-based, Leishmania donovani; conditions: 25, 50 and 100 μM, 72 h, light microscopy 40×
Experimental: For the evident of morphological changes, the promastigotes (Fig. 3 (C to L)) were incubated in presence of compound T7, T4 and control Ampho B with the different concentration 25 μM, 50 μM, 100 μM shown in (Fig. 3C to L) were analysed by light microscopy (40×magnification) compared to untreated cells (Fig. 4A).
Fig. 4 Morphological Analysis of promastigote stage cells treated with compound T4 and MTF, compared to the untreated control (A) and DMSO treated control (B). Exponential-phase promastigotes (1 × 10^6 cells per mL) were incubated with 25 μm, 50 μm and 100 μm and analysed by light microscopy (40× magnification). (A) Untreated control (B) DMSO Treated cells (C–E) Ampho B, (F–H) T4 and T7 (I–K) at 25, 50, and 100 μM respectively. Scale bar in all is 10 μm.
Variations in the cellular morphology of Leishmania parasites due to the treatment with compounds T4 and T7 was detected microscopically. Briefly, the promastigotes (1× 10^6 cells per mL) were incubated in the absence or presence of test compounds and MTF and AmphoB for 72 h with different concentrations and observed under 40× objective of a phase-contrast microscope. […] Data were recorded by using NIS-Elements imaging software.[32]

Compound	melting point [°C]	Activity against the promastigote parasite (in words) [1]	inhibition at 100 µM [1] [%]	% Inhibition of L. donovani promastigotes [1] [%]	further results
Cc1cc(N2CCN(c3cc(Sc4nnc(-c5ccccc5)c(-c5ccccc5)n4)ncn3)CC2)n2ncnc2n1 [T11, 7-(4-(6-((5,6-Diphenyl-1,2,4-triazin-3-yl)thio)pyrimidin-4-yl)piperazin-1-yl)-5-methyl-[1,2,4]triazolo[1,5-a]pyrimidine]	280 to 285	negligible activity	32.1	–	–
N#Cc1cccnc1N1CCN(c2cc(Sc3nnc(-c4ccccc4)c(-c4ccccc4)n3)ncn2)CC1 [T9, 2-(4-(6-((5,6-Diphenyl-1,2,4-triazin-3-yl)thio)pyrimidin-4-yl)piperazin-1-yl)nicotinonitrile]	250 to 252	negligible activity	29.8	–	–
CCN1CCN(c2cc(Sc3nnc(-c4ccccc4)c(-c4ccccc4)n3)ncn2)CC1 [T13, 113-((6-(4-Ethylpiperazin-1-yl)pyrimidin-4-yl)thio)-5,6-diphenyl-1,2,4-triazine]	–	negligible activity; also recorded: minimal activity	–	18.54	–
1,2,4-triazino[5,6-b]indol-3-ylthio-1,3,5-triazine [1 (Fig. 2)]	–	–	–	–	fold more selectivity in comparison to pentamidine [2]: 20 fold; fold more selectivity in comparison to sodium stibogluconate [2]: 10 fold; inhibition against promastigote form of L. donovani [2]: more than 90%; selectivity (S.I.) [2]: 56.61
CCOC(=O)c1cnc2ccc(C)cc2c1Sc1nnc(-c2ccccc2)c(-c2ccccc2)n1 [T3, Ethyl 4-((5,6-diphenyl-1,2,4-triazin-3-yl)thio)-6-methylquinoline-3-carboxylate]	210 to 212	–	< 90	83.43	–
c1ccc(-c2nnc(Sc3cc(N4CCOCC4)ncn3)nc2-c2ccccc2)cc1 [T6, 4-(6-((5,6-Diphenyl-1,2,4-triazin-3-yl)thio)pyrimidin-4-yl)morpholine]	198 to 200	negligible activity	43.9	–	–
CCCCCCCCCCCCCCCCOP(=O)([O-])OCC[N+](C)(C)C [MTF, miltefosine, reference compound]	–	–	–	–	Percentage reduction of parasites (amastigote) (L. donovani amastigotes; 6.25 μM): 68%; Percentage reduction of parasites (amastigote) (L. donovani amastigotes; 12.5 μM): 72%; Percentage reduction of parasites (amastigote) (L. donovani amastigotes; 25 μM): 73%; Percentage reduction of parasites (amastigote) (L. donovani amastigotes; 50 μM): 74%; Percentage reduction of parasites (amastigote) (L. donovani amastigotes; 100 μM): 76%; IC50 [3]: 1480 nM; Cytotoxicity on THP-1 human macrophages (in words) [4]: some cytotoxicity; Cytotoxicity on THP-1 human macrophages (in words) ([4]; listed as Miltefosine): nontoxic
O=C(CSc1nnc(-c2ccccc2)c(-c2ccccc2)n1)Nc1cc(=O)oc2ccccc12 [T5, 2-((5,6-Diphenyl-1,2,4-triazin-3-yl)thio)-N-(2-oxo-2H-chromen-4-yl)acetamide]	200 to 202	–	–	67.93	–
c1ccc(-c2nnc(Sc3cc(N4CCCCC4)ncn3)nc2-c2ccccc2)cc1 [T8, 5,6-Diphenyl-3-((6-(piperidin-1-yl)pyrimidin-4-yl)thio)-1,2,4-triazine]	–	negligible activity	73.7	–	–
Clc1ccc2c(Sc3nnc(-c4ccccc4)c(-c4ccccc4)n3)ccnc2c1 [T1, 7-Chloro-4-((5,6-diphenyl-1,2,4-triazin-3-yl)thio)quinoline]	250 to 252	–	–	66.78	–
O=[N+]([O-])c1ccc(N2CCN(c3cc(Sc4nnc(-c5ccccc5)c(-c5ccccc5)n4)ncn3)CC2)cc1 [T14, 123-((6-(4-(4-Nitrophenyl)piperazin-1-yl)pyrimidin-4-yl)thio)-5,6-diphenyl-1,2,4-triazine]	–	negligible activity; also recorded: minimal activity	–	22.76	–
CC1CCN(c2cc(Sc3nnc(-c4ccccc4)c(-c4ccccc4)n3)ncn2)CC1 [T7, 3-((6-(4-Methylpiperidin-1-yl)pyrimidin-4-yl)thio)-5,6-diphenyl-1,2,4-triazine]	250 to 252	–	> 90	99.89	Cellular morphological alterations in promastigotes (in words) [5]: loss of flagella; Percentage reduction of parasites (amastigote) (L. donovani amastigotes; 6.25 μM): 56%; Percentage reduction of parasites (amastigote) (L. donovani amastigotes; 12.5 μM): 62%; Percentage reduction of parasites (amastigote) (L. donovani amastigotes; 25 μM): 66%; Percentage reduction of parasites (amastigote) (L. donovani amastigotes; 50 μM): 70.6%; Percentage reduction of parasites (amastigote) (L. donovani amastigotes; 100 μM): 72%; Inhibitory activity against amastigotes (in words) (L. donovani amastigotes; 100–6.25 μM, infected macrophages): good inhibitory activity; also recorded: capable of inhibiting the growth; IC50 [3]: 1160 nM
Clc1ccc2c(N3CCN(c4cc(Sc5nnc(-c6ccccc6)c(-c6ccccc6)n5)ncn4)CC3)ccnc2c1 [T10, 7-Chloro-4-(4-(6-((5,6-diphenyl-1,2,4-triazin-3-yl)thio)pyrimidin-4-yl)piperazin-1-yl) quinoline]	260 to 262	negligible activity	22.4	–	–
Fc1ccc(N2CCN(c3cc(Sc4nnc(-c5ccccc5)c(-c5ccccc5)n4)ncn3)CC2)cc1 [T15, 3-((6-(4-(4-Fluorophenyl)piperazin-1-yl)pyrimidin-4-yl)thio)-5,6-diphenyl-1,2,4-triazine]	–	negligible activity; also recorded: minimal activity	28.8	–	–
CCOC(=O)c1cnc2ccc(OC)cc2c1Sc1nnc(-c2ccccc2)c(-c2ccccc2)n1 [T2, Ethyl 4-((5,6-diphenyl-1,2,4-triazin-3-yl)thio)-6-methoxyquinoline-3-carboxylate]	200 to 202	–	< 90	71.02	–
COc1ccccc1N1CCN(c2cc(Sc3nnc(-c4ccccc4)c(-c4ccccc4)n3)ncn2)CC1 [T12, 103-((6-(4-(2-methoxyphenyl)piperazin-1-yl)pyrimidin-4-yl)thio)-5,6-diphenyl-1,2,4-triazine]	–	negligible activity; also recorded: minimal activity	–	21.86	–
C[C@@H]1[C@H](O)[C@@H](C)/C=C/C=C/C=C/C=C/C=C/C=C/C=C/[C@H](O[C@@H]2O[C@H](C)[C@@H](O)[C@H](N)[C@@H]2O)C[C@@H]2O[C@](O)(C[C@@H](O)C[C@@H](O)[C@H](O)CC[C@@H](O)C[C@@H](O)CC(=O)O[C@H]1C)C[C@H](O)[C@H]2C(=O)O [Ampho B, Amphotericin B, reference compound]	–	–	–	–	Percentage reduction of parasites (amastigote) (L. donovani amastigotes; 6.25 μM): 74%; Percentage reduction of parasites (amastigote) (L. donovani amastigotes; 12.5 μM): 76%; Percentage reduction of parasites (amastigote) (L. donovani amastigotes; 25 μM): 79.44%; Percentage reduction of parasites (amastigote) (L. donovani amastigotes; 50 μM): 82.5%; Percentage reduction of parasites (amastigote) (L. donovani amastigotes; 100 μM): 84.2%; IC50 [3]: 1040 nM
